Consider five compounds from PMC6458995, “MAP4K4 Inhibition Promotes Survival of Human Stem Cell-Derived Cardiomyocytes and Reduces Infarct Size In Vivo” (Cell Stem Cell, 2019).

Assay in all cases: Dundee kinase panel
Holding throughout (type): biochemical
What all share (details): for remaining activity at 1 µM: read-out: residual activity

For one assay, the target named is T1, CK1δ (Homo sapiens, UniProt P48730).
T1 construct: lines 1-140) and Reaction Biology
Here is the method: (§1) Compounds were screened at 1 μM. For key hits, pIC50 values were then determined by HTRF as above. […] Stability in mouse and human liver microsomes was determined by Cyprotex.

In a further assay the target is T2, CK2 (Homo sapiens, UniProt P68400).
T2 construct: lines 1-140) and Reaction Biology
As for the experimental part:
as §1

A further assay has as its target T3, GSK3b (Homo sapiens, UniProt P49841).
T3 construct: lines 1-140) and Reaction Biology
As for the experimental part: as §1

Another assay concerns the target T4, HER4 (Homo sapiens, UniProt Q15303).
T4 construct: lines 1-140) and Reaction Biology
Here is the method: as §1

A further assay deals with T5, HIPK2 (Homo sapiens, UniProt Q9H2X6).
T5 construct: lines 1-140) and Reaction Biology
As for the experimental part:
as §1

In a further assay the target is T6, IRR (Homo sapiens, UniProt P14616).
T6 construct: lines 1-140) and Reaction Biology
Here is the method:
as §1

The target of a further assay is T7, JNK1 (Homo sapiens, UniProt P45983).
T7 construct: lines 1-140) and Reaction Biology
Here is the method: as §1

A further assay concerns the target T8, MARK2 (Homo sapiens, UniProt Q7KZI7).
T8 construct: lines 1-140) and Reaction Biology
Here is the method: as §1

The target of a further assay is T9, MLK3 (Homo sapiens, UniProt Q16584).
T9 construct: lines 1-140) and Reaction Biology
As for the experimental part: as §1

Another assay concerns the target T10, NEK6 (Homo sapiens, UniProt Q9HC98).
T10 construct: lines 1-140) and Reaction Biology
As for the experimental part: as §1

The target in the next assay is T11, PAK5 (Homo sapiens, UniProt Q9P286).
T11 construct: lines 1-140) and Reaction Biology
Here is the method:
as §1

Another assay has as its target T12, PDGFRA (Homo sapiens, UniProt P16234).
T12 construct: lines 1-140) and Reaction Biology
As for the experimental part:
as §1

Another assay concerns the target T13, PDK1 (Homo sapiens, UniProt O15530).
T13 construct: lines 1-140) and Reaction Biology
T13 sequence (O15530 1-556): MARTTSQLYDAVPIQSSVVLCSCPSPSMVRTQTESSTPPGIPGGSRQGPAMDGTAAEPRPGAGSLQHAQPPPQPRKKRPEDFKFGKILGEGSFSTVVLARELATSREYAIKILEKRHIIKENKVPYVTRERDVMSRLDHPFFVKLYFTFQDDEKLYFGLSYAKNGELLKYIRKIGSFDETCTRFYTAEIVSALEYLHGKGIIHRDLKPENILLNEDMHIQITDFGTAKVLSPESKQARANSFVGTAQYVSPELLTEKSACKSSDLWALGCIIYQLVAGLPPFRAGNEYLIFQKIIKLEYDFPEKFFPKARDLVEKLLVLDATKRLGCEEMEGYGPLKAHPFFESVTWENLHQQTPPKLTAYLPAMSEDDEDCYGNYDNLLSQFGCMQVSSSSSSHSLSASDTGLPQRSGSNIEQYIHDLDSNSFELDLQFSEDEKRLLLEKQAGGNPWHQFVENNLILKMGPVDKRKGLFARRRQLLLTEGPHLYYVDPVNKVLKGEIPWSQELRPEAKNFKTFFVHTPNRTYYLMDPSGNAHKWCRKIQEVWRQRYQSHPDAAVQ
As for the experimental part:
as §1

In a further assay the target is T14, PKA (Homo sapiens, UniProt P17612).
T14 construct: lines 1-140) and Reaction Biology
As for the experimental part: as §1

The target of another assay is T15, PKBa (Homo sapiens, UniProt P31749).
T15 construct: lines 1-140) and Reaction Biology
As for the experimental part:
as §1

The target of another assay is T16, PLK1 (Homo sapiens, UniProt P53350).
T16 construct: lines 1-140) and Reaction Biology
As for the experimental part: as §1

The target in another assay is T17, SIK2 (Homo sapiens, UniProt Q9H0K1).
T17 construct: lines 1-140) and Reaction Biology
Here is the method:
as §1

A further assay has as its target T18, TBK1 (Homo sapiens, UniProt Q9UHD2).
T18 construct: lines 1-140) and Reaction Biology
T18 sequence (Q9UHD2 1-729): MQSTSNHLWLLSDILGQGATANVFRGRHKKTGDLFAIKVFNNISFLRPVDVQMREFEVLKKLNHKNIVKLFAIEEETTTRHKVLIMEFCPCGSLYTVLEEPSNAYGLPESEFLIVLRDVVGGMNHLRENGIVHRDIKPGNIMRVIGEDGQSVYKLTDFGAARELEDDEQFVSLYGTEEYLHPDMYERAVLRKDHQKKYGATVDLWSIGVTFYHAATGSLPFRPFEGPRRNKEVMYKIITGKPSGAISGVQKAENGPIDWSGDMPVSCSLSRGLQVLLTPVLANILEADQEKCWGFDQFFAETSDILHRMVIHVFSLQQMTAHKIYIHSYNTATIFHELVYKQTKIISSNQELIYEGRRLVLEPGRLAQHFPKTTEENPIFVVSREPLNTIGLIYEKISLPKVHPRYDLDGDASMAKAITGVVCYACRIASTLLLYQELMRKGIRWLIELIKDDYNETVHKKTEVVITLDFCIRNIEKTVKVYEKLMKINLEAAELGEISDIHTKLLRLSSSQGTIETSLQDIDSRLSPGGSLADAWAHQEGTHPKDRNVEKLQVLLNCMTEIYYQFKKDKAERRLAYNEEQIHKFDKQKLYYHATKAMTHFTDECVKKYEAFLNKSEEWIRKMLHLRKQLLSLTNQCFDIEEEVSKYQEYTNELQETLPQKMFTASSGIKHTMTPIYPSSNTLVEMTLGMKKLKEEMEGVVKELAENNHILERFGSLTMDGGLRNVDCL
Here is the method: as §1

The target of the next assay is T19, p38d MAPK (Homo sapiens, UniProt O15264).
T19 construct: lines 1-140) and Reaction Biology
T19 sequence (O15264 1-365): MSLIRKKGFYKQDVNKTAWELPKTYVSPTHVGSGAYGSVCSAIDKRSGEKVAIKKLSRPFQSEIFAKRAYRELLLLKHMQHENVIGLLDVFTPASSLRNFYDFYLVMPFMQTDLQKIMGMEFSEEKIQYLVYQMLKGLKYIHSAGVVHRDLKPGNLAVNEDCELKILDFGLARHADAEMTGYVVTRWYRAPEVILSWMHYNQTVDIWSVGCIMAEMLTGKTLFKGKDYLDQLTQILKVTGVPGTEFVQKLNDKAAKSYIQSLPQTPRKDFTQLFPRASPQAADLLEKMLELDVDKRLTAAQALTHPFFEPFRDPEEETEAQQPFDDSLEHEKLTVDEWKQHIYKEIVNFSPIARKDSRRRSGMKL
As for the experimental part:
as §1

Molecules are shown by their SMILES.

T6 sequence (P14616 27-1297): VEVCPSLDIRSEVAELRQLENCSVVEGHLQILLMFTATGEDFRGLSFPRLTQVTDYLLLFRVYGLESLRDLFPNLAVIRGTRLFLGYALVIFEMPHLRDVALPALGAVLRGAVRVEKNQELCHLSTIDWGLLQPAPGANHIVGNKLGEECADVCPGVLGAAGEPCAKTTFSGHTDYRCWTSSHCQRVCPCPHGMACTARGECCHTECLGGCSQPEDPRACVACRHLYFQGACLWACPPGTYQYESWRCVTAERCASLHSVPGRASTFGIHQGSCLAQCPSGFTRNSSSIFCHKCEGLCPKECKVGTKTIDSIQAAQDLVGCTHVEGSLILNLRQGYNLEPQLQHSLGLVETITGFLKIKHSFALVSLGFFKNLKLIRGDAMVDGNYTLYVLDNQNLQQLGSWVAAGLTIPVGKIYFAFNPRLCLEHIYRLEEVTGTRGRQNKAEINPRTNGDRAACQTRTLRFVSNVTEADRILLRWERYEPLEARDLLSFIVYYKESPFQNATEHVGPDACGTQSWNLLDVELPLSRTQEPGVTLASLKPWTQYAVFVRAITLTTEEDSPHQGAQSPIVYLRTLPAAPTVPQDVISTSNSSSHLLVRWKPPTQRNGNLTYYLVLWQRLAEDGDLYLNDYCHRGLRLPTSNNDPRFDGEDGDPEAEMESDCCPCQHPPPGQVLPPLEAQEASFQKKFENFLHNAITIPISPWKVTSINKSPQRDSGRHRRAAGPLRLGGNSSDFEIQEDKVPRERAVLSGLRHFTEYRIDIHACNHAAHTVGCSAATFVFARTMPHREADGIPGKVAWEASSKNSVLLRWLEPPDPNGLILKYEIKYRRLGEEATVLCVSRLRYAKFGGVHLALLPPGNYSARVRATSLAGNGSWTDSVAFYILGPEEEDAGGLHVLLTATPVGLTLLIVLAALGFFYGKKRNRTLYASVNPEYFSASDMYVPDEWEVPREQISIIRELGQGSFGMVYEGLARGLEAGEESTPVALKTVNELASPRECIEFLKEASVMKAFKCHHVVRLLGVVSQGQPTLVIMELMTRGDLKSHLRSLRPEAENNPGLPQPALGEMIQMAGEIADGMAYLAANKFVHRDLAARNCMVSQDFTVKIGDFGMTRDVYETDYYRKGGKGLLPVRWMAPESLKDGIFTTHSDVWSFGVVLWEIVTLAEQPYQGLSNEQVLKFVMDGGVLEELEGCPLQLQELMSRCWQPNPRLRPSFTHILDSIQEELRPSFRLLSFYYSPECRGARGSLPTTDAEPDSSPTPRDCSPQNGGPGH
T7 sequence (P45983 whole entry): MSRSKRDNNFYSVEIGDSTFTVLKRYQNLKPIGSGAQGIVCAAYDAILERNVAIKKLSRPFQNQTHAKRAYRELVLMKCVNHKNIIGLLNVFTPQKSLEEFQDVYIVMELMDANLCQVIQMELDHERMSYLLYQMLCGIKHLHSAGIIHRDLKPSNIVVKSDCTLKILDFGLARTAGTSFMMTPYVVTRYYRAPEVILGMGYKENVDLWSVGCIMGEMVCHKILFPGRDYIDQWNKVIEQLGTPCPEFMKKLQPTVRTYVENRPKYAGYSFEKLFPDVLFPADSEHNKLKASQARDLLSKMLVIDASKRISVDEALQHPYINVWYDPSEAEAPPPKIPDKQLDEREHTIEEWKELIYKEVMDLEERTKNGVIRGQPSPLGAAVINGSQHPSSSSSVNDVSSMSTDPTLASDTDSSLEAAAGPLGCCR
T12 sequence (P16234 24-1089): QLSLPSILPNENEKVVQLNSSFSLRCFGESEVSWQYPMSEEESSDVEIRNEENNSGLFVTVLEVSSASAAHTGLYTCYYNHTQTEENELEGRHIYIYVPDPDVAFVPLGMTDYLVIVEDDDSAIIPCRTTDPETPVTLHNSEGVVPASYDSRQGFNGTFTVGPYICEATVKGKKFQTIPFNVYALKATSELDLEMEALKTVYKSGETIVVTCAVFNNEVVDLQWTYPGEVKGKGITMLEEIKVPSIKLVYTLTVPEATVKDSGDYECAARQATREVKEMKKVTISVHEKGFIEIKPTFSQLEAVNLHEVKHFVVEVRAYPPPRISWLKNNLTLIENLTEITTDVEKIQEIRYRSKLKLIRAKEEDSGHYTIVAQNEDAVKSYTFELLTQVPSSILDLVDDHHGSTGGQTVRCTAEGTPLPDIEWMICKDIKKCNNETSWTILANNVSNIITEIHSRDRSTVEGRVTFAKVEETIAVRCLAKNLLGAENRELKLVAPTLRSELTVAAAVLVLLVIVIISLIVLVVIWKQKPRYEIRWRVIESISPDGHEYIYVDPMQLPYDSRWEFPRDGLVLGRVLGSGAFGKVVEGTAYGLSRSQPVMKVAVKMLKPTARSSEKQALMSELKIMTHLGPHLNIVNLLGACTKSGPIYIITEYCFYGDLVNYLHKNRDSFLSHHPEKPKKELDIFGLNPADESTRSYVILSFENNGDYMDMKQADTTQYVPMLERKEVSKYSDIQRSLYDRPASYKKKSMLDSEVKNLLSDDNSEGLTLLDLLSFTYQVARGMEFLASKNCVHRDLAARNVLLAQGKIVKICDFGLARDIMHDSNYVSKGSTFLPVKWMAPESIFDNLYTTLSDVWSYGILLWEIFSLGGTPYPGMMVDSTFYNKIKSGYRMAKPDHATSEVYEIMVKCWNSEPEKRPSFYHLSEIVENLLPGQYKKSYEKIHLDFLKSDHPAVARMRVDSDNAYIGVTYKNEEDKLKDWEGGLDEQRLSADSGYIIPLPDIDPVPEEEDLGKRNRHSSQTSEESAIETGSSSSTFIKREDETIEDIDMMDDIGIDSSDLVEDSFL
T8 sequence (Q7KZI7 whole entry): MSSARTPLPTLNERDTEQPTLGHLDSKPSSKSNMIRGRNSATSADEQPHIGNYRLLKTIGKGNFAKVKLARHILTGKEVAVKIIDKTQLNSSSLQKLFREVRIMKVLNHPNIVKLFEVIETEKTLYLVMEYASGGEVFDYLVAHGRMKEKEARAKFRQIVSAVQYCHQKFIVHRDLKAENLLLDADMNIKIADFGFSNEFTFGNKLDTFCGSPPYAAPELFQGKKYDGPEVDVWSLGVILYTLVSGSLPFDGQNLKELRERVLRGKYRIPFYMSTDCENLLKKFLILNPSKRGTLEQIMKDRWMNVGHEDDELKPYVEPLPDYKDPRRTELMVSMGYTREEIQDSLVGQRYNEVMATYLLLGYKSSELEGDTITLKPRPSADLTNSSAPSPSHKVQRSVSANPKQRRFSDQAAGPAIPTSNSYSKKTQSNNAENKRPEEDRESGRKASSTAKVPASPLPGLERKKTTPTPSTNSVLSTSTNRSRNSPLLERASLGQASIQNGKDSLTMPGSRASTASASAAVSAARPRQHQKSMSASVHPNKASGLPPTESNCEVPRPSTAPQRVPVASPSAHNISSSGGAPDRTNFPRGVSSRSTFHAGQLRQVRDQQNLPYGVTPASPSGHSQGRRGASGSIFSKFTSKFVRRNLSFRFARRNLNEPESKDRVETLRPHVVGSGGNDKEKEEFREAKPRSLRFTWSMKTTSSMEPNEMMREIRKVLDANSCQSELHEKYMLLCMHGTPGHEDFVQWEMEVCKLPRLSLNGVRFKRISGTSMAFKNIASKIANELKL
T3 sequence (P49841 whole entry): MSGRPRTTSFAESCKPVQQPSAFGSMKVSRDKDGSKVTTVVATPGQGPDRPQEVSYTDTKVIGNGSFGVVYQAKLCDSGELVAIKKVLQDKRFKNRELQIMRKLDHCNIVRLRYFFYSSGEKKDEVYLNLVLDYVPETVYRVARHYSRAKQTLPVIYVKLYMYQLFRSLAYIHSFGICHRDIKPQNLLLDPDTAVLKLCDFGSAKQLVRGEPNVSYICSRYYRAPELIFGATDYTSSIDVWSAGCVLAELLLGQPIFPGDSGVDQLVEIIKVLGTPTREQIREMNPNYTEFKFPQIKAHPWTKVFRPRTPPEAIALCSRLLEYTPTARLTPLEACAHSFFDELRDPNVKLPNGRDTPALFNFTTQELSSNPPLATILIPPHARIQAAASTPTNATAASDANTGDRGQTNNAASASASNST
T15 sequence (P31749 whole entry): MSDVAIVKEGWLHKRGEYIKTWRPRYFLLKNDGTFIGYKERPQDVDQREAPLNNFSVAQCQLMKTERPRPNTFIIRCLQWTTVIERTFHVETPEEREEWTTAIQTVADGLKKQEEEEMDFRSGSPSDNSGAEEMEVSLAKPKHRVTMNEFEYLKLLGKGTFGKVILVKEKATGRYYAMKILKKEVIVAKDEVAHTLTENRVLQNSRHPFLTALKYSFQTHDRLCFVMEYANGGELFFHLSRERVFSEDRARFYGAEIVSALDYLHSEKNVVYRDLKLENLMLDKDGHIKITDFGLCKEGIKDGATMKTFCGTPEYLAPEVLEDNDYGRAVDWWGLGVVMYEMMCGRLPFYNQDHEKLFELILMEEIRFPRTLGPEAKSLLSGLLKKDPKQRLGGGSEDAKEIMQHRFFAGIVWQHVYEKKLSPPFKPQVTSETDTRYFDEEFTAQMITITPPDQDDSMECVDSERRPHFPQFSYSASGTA
T10 sequence (Q9HC98 whole entry): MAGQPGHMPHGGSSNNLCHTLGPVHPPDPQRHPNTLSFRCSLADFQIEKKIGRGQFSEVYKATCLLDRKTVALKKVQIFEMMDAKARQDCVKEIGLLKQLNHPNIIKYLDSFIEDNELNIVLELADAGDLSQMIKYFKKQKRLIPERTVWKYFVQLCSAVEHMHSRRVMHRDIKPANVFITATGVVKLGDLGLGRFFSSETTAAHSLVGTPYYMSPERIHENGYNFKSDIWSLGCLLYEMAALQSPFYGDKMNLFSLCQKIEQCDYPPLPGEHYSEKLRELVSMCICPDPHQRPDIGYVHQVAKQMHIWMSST

In the case of `COCCOc1ccc(-c2cn(-c3ccccc3)c3nc[nH]c(=O)c23)cc1` [DMX-5804, 5-[4-(2-methoxy-ethoxy)-phenyl]-7-phenyl-3,7-dihydro-pyrrolo[2,3-d]pyrimidin-4-one], the remaining activity at 1 µM is 94% at CK1δ; 104% on CK2; 102% at GSK3b; 106% on HER4; 102% on HIPK2; 96% on IRR. Moreover, the remaining activity at 1 µM amounted to 122% on JNK1; 98% on MARK2; 12% on MLK3; 101% at NEK6; 105% at PAK5; 88% at PDGFRA. Besides, the remaining activity at 1 µM at PDK1 amounted to 89%; at PKA, 109%; at PKBa, 116%; on PLK1 it was 118%; on SIK2, 90%; at TBK1 it was 48%. Further, the remaining activity at 1 µM on p38d MAPK was determined as 107%.
With `Oc1ncnc2c1c(-c1ccccc1)cn2-c1ccccc1` [F1386-0303, 5,7-diphenyl-7H-pyrrolo[2,3-d]pyrimidin-4-ol], the remaining activity at 1 µM at CK1δ is 107%; on CK2 it was 77%; at GSK3b it was 127%; on HER4, 82%; at HIPK2, 87%; on IRR, 95%. Moreover, the remaining activity at 1 µM on JNK1 came out at 99%; at MARK2, 98%; at MLK3, 30%; at NEK6, 128%; at PAK5, 105%; at PDGFRA it was 93%. Moreover, the remaining activity at 1 µM was determined as 103% on PDK1; 103% on PKA; 117% on PKBa; 100% at PLK1; 99% on SIK2; 97% at TBK1. Further, the remaining activity at 1 µM at p38d MAPK turned out to be 114%.
Consider `Nc1ncc(C(=O)NC2CN(C(=O)C3CC3)C2)c2ccc(-c3cccc(F)c3)nc12` [GNE-495], for which the residual activity was found to be 65% on CK1δ (1 μM); 93% at CK2 (1 μM); 69% at GSK3b (1 μM); 98% at HER4 (1 μM); 96% on HIPK2 (1 μM); 83% on IRR (1 μM). Besides, the residual activity on JNK1 (1 μM) stood at 63%; at MARK2 (1 μM), 42%; on MLK3 (1 μM), 38%; at NEK6 (1 μM) it was 111%; at PAK5 (1 μM), 55%; on PDGFRA (1 μM) it was 97%. The residual activity at PDK1 (1 μM) amounted to 90%; on PKA (1 μM), 95%; at PKBa (1 μM), 105%; at PLK1 (1 μM), 84%; at SIK2 (1 μM), 102%; on TBK1 (1 μM) it was 104%. The residual activity at p38d MAPK (1 μM) was 110%.
For `O=C1Nc2ccc(I)cc2/C1=C/c1cc(Br)c(O)c(Br)c1` [GW5074], the remaining activity at 1 µM at CK1δ came out at 88%; at CK2, 72%; on GSK3b, 42%; on HER4 it was 68%; on HIPK2, 134%; at IRR, 61%. The remaining activity at 1 µM at JNK1 was found to be 70%; at MARK2 it was 49%; at MLK3, 17%; on NEK6, 82%; on PAK5 it was 77%; on PDGFRA, 24%. Also, the remaining activity at 1 µM amounted to 22% on PDK1; 83% on PKA; 93% at PKBa; 81% on PLK1; 24% on SIK2; 83% at TBK1. Moreover, on p38d MAPK, the remaining activity at 1 µM was 82%.
With `O=C1Cc2c([nH]c3ccc(Br)cc23)-c2ccccc2N1` [Kenpaullone], the remaining activity at 1 µM on CK1δ came out at 104%; on CK2, 90%; at GSK3b, 6%; on HER4 it was 85%; on HIPK2, 103%; on IRR it was 89%. Further, the remaining activity at 1 µM was determined as 100% on JNK1; 35% on MARK2; 21% on MLK3; 99% at NEK6; 12% at PAK5; 48% at PDGFRA. For the same compound, the remaining activity at 1 µM turned out to be 64% on PDK1; 105% at PKA; 95% on PKBa; 99% on PLK1; 13% at SIK2; 90% at TBK1. Besides, at p38d MAPK, the remaining activity at 1 µM turned out to be 91%.

Usually residual activity stands for the signal under treatment as a percentage of the control signal.
